Five molecules from ChEMBL document CHEMBL4251679 (J Nat Prod, 2018) can be followed below.

For series [1], the species on record is Bos taurus. In words: Inhibition of [3H]2-m-AzTax binding to bovine brain beta-tubulin at 20 uM treated for 30 mins followed by UV irradiation for 10 mins by fluorographic method relative to control.
Series [2] can be described thus: Substrate activity at P-gp in human SKVLB1 cells assessed as inhibition of cell growth after 72 to 120 hrs in presence of verapamil by sulforhodamine B assay. The class given is cell-based.
Series [3] relates to SK-OV-3. In words: Cytotoxicity against human SKOV3 cells after 72 to 120 hrs in presence of verapamil by sulforhodamine B assay. Format: functional, cell-based. In general terms: In SRB staining, fixed cells bind dye roughly in proportion to their protein.
A short description of series [4]: Cytotoxicity against human Hey/Ixab80 cells after 72 to 120 hrs by sulforhodamine B assay. Format: functional, cell-based.
Series [5] in a line: Substrate activity at P-gp in human SKVLB1 cells assessed as inhibition of cell growth after 72 to 120 hrs by sulforhodamine B assay. Format: cell-based.
A short description of series [6]: Cytotoxicity against human Hey/EpoB8 cells after 72 to 120 hrs by sulforhodamine B assay. Format: functional, cell-based.
For series [7], the species on record is Homo sapiens. In words: Inhibition of [3H]2-m-AzTax binding to P-gp in human SKVLB1 cell plasma membranes assessed as residual [3H]2-m-AzTax binding at 40 uM treated for 30 mins followed by UV irradiation measured after 10 mins by fluorographic method relative to control.
Series [8] concerns SK-OV-3. In words: Effect on [3H]vinblastine accumulation in human SKOV3 cells at 40 uM after 1 hr by liquid scintillation counting method. Format: functional, cell-based.
Series [9] is filed under the species Homo sapiens. In words: Inhibition of [3H]2-m-AzTax binding to P-gp in human SKVLB1 cell plasma membranes at 40 uM treated for 30 mins followed by UV irradiation for 10 mins by fluorographic method relative to control.
The nature of series [10]: Cytotoxicity against vinblastine-resistant human SKVLB1 cells after 72 to 120 hrs by sulforhodamine B assay. The class given is functional, cell-based.
The species entered for series [11] is Homo sapiens. In words: Binding affinity to P-gp in human SKVLB1 cells assessed as increase in [3H]vinblastine accumulation at 40 uM after 1 hr by liquid scintillation counting method. The class given is cell-based.
Series [12] has as its system SK-OV-3. In words: Cytotoxicity against human SKOV3 cells after 72 to 120 hrs by sulforhodamine B assay. The class given is functional, cell-based.
The nature of series [13]: Cytotoxicity against human Hey/Tx100 cells after 72 to 120 hrs by sulforhodamine B assay. The class given is functional, cell-based.
The target of series [14] is Tubulin beta-4 chain (Gallus gallus) (UniProt P09652). In words: Inhibition of [3H]2-m-AzTax binding to chicken erythrocyte beta-tubulin 4 at 20 uM treated for 30 mins followed by UV irradiation for 10 mins by fluorographic method relative to control.
Series [15] relates to HEY. In words: Cytotoxicity against human HEY cells after 72 to 120 hrs by sulforhodamine B assay. Format: functional, cell-based.
Series [16] is described as follows: Resistance index, ratio of IC50 for human HEY/Tx100 cells to IC50 for human HEY cells. Format: functional.
A short description of series [17]: Resistance index, ratio of IC50 for human HEY/Ixab80 cells to IC50 for human HEY cells. The class given is functional.
The nature of series [18]: Resistance index, ratio of IC50 for vinblastine-resistant human SKVLB1 cells to IC50 for human SKOV3 cells. Format: functional.
A short description of series [19]: Resistance index, ratio of IC50 for human HEY/EpoB8 cells to IC50 for human HEY cells. The class given is functional.
The test system of series [20] is P-gp. In words: Resistance index, ratio of IC50 for substrate activity at P-gp in human SKVLB1 cells assessed as inhibition of cell growth in presence of verapamil to IC50 for human SKOV3 cells in presence of verapamil. Format: toxicity, cell-based. The conditions noted are these: SKVLB1 cells (P-gp) versus SKOV3 cells, with verapamil (concentration not stated), read-out: Ratio IC50.

Series [21] concerns P-gp. In words: Resistance index, ratio of IC50 for substrate activity at P-gp in human SKVLB1 cells assessed as inhibition of cell growth to IC50 for human SKOV3 cells. The conditions noted are these: SKVLB1 cells (P-gp) versus SKOV3 cells, read-out: Ratio IC50. The class given is toxicity, cell-based.
Series [22] in a line: Ratio of fold resistance for substrate activity at P-gp in human SKVLB1 cells relative to sensitive human SKOV3 cells in absence of verapamil to fold resistance for substrate activity at P-gp in human SKVLB1 cells relative to sensitive human SKOV3 cells in presence of verapamil. The class given is toxicity, cell-based.

Activity calls are given as the source filed them. The rule behind the calls is not given here. Where only a bound is given, the exact number is not on record here.

Sequence of Tubulin beta-4 chain (Gallus gallus) (P09652 whole entry): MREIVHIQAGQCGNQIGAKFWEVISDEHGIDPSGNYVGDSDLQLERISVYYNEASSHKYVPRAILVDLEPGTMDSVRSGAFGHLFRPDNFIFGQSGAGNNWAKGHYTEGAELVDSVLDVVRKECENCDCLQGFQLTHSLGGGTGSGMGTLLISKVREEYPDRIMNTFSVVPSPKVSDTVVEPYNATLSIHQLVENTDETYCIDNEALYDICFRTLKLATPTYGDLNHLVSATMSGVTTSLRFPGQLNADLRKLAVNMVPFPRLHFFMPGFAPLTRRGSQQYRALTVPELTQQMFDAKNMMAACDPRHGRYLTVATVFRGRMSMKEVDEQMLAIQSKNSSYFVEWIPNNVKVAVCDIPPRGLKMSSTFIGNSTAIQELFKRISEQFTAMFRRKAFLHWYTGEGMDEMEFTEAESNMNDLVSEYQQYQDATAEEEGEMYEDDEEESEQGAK

The term inhibition denotes the percentage by which the read-out fell short of the control. Usually IC50 stands for the concentration needed to halve the response being measured. On to `CC(=O)O[C@@]12CO[C@@H]1C[C@H](O)[C@@]1(C)C(=O)[C@H](OC(=O)C3CC3)C3=C(C)[C@@H](OC(=O)[C@H](O)[C@H](C=C(C)C)NC(=O)OC(C)(C)C)C[C@@](O)([C@@H](OC(=O)c4ccccc4)[C@H]21)C3(C)C`, for which the results for the inhibition in series [1], in series [9] and in series [14] were 38%, 89% and 30%, respectively. Also, the IC50 in series [2] worked out at 0.0465 µM; in series [3], 0.00144 µM; in [4], 1.6 µM; in series [5], 0.182 µM; in [6] it was 8 µM; in series [10], 0.0756 µM. For the same molecule, the half-maximal inhibitory concentration (IC50) was 0.00062 to 0.00146 µM in series [12], 2.3 µM in series [13] and 0.58 µM in series [15]. Moreover, in [7], the Activity was 11%. In addition, in series [8], the result was inactive. Moreover, the result in series [11] was Active.

Consider `CC(=O)O[C@@]1(C2/C(C)=C(/O)C(=O)C3=C(C)[C@@H](OC(=O)[C@H](O)[C@H](C=C(C)C)NC(=O)OC(C)(C)C)C[C@@](O)([C@H]2OC(=O)c2cccc(Cl)c2)C3(C)C)CO[C@H]1CCO` (stereo partly drawn), for which the inhibition in [1] is 32%; in [9], more than 80%; in series [14], 6%. For the same molecule, the “Ratio IC50” value was 35 in [16], 16 in series [17], 1376 in series [18] and 17 in [19]. In addition, the half-inhibitory concentration (IC50) in series [4] worked out at 13 µM; in [6], 13.9 µM; in [10] it was 1.58 µM; in [12] it was 0.00115 µM; in [13], 28.8 µM; in series [15], 0.82 µM. The Activity in series [7] amounted to 14%. The outcome in [8] was inactive. The outcome in series [11] was Active.

As for `CC(=O)O[C@H]1C(=O)[C@@]2(C)[C@H]([C@H](OC(=O)c3cccc(N=[N+]=[N-])c3)[C@]3(O)C[C@H](OC(=O)[C@H](O)[C@@H](NC(=O)c4ccccc4)c4ccccc4)C(C)=C1C3(C)C)[C@]1(OC(C)=O)CO[C@@H]1C[C@@H]2O`, the Activity in series [7] is 16%.

Regarding `CC(=O)O[C@@]12CO[C@@H]1C[C@H](O)[C@@]1(C)C(=O)[C@H](O)C3=C(C)[C@@H](OC(=O)[C@H](O)[C@@H](NC(=O)OC(C)(C)C)c4ccccc4)C[C@@](O)([C@@H](OC(=O)c4ccccc4)[C@H]21)C3(C)C` [DOCETAXEL ANHYDROUS], the inhibition amounted to 33% in [1], 55% in series [9] and 98% in series [14]. Also, the “Ratio IC50” value in series [16] amounted to 48; in series [17] it was 19; in series [18] it was 4704; in series [19], 10. The IC50 in series [4] worked out at 16.2 µM; in [6], 8.4 µM; in series [10] it was 3.53 µM; in [12], 0.00075 µM; in series [13] it was 41.4 µM; in series [15], 0.86 µM. Further, the Activity in series [7] was found to be 45%. For the same molecule, in series [11], the outcome was Active.

Turning to `CC(=O)O[C@H]1C(=O)[C@@]2(C)[C@H]([C@H](OC(=O)c3ccccc3)[C@]3(O)C[C@H](OC(=O)[C@H](O)[C@@H](NC(=O)c4ccccc4)c4ccccc4)C(C)=C1C3(C)C)[C@]1(OC(C)=O)CO[C@@H]1C[C@@H]2O` [PACLITAXEL], the inhibition in series [1] stood at 9%; in series [14], 98%. The half-maximal inhibitory concentration (IC50) in [2] came out at 3.73 µM; in series [3], 0.00399 µM; in series [4] it was 152 µM; in series [5] it was 21.2 µM; in series [6] it was 22.2 µM; in series [10], 12.6 µM. Besides, the results for the IC50 in [12], in series [13] and in series [15] were 0.00239 to 0.00385 µM, 240 µM and 2.7 µM, respectively. The “Ratio IC50” value in series [16] came out at 89; in series [17], 56; in series [18], 5416; in series [19], 8. Also, the selectivity ratio in series [20] is 936; in series [21] it was 5520. Also, the Activity in series [7] was 18%. Moreover, in series [9], the inhibition entry was “Active”. In series [11], the result was Active. Also, in series [22], the Ratio was determined as 5.9.
